SMILES | melting point
CS(=O)(=O)N1CCC(c2cc(F)ccc2F)(S(=O)(=O)c2ccc(Cl)cc2)CC1 [Example 269, 4-[(4-Chlorophenyl)sulfonyl]-4-(2,5-difluorophenyl)-1-(methylsulfonyl)piperidine] | 176 to 178 °C
CN(C)S(=O)(=O)N1CCC(c2cc(F)ccc2F)(S(=O)(=O)c2ccc(Cl)cc2)CC1 [Example 270, N,N-Dimethyl-4-[(4-chlorophenyl)sulfonyl]-4-(2,5-difluorophenyl)-1-piperidinesulfonamide] | 125 to 129 °C
CN(C)CC(=O)N1CCC(c2cc(F)ccc2F)(S(=O)(=O)c2ccc(Cl)cc2)CC1 [Example 271, 1-[4-[(4-Chlorophenyl)sulfonyl]-4-(2,5-difluorophenyl)piperidino]-2-(dimethylamino)-1-ethanone] | 88 to 92 °C
CCNC(=O)N1CCC(c2cc(F)ccc2F)(S(=O)(=O)c2ccc(Cl)cc2)CC1 [Example 272, N-ethyl-4-[(4-chlorophenyl)sulfonyl]-4-(2,5-difluorophenyl)-1-piperidinecarboxamide] | 172 to 174 °C
O=S(=O)(c1ccc(Cl)cc1)C1(c2cc(F)ccc2F)CCCCCC1 [Example 275] | 101 to 103 °C
O=S(=O)(c1ccc(Cl)cc1)C(Cc1ccccc1CO)c1cc(F)ccc1F (stereo not drawn) [Example 277, [2-[2-[(4-Chlorophenyl)sulfonyl]-2-(2,5-difluorophenyl)ethyl]phenyl]methanol] | 107 to 108 °C
O=S(=O)(c1ccc(Cl)cc1)C1(c2cc(F)ccc2F)Cc2ccccc2C1 [Example 278, 2-[(4-Chlorophenyl)sulfonyl]-2-(2,5-difluorophenyl)indane] | 209 to 210 °C (dec.)
CC1CCCC1(c1cc(F)ccc1F)S(=O)(=O)c1ccc(Cl)cc1 (stereo not drawn) [Example 279, 2-[1-[(4-Chlorophenyl)sulfonyl]-2-methylcyclopentyl]-1,4-difluorobenzene] | 105 to 109 °C
O=S(=O)(c1ccc(Cl)cc1)C1(c2ccccc2CO)CCCCC1 [Example 286, [2-[1-[(4-Chlorophenyl)sulfonyl]cyclohexyl]phenyl]methanol] | 148 to 150 °C (dec.)
CC(C)(C)OC(=O)N1CCC(C(c2cc(F)ccc2F)S(=O)(=O)c2ccc(Cl)cc2)CC1 (stereo not drawn) [Example 290, t-Butyl 4-[[(4-chlorophenyl)sulfonyl](2,5-difluorophenyl)methyl]-1-piperidinecarboxylate] | 193 to 196 °C
O=S(=O)(c1ccc(Cl)cc1)C(Cc1cccs1)c1cc(F)ccc1F (stereo not drawn) [Example 295, 2-[2-[(4-Chlorophenyl)sulfonyl]-2-(2,5-difluorophenyl)ethyl]thiophene] | 127 to 130 °C
Cc1ccccc1CCC(c1cc(F)ccc1F)S(=O)(=O)c1ccc(Cl)cc1 (stereo not drawn) [Example 305, 2-[1-(4-Chlorophenylsulfonyl)-3-(2-methylphenyl)propyl]-1,4-difluorobenzene] | 105 to 106 °C
Cc1cccc(CCC(c2cc(F)ccc2F)S(=O)(=O)c2ccc(Cl)cc2)c1 (stereo not drawn) [Example 306, 2-[1-(4-Chlorophenylsulfonyl)-3-(3-methylphenyl)propyl]-1,4-difluorobenzene] | 87 to 88 °C
Cc1ccc(CCC(c2cc(F)ccc2F)S(=O)(=O)c2ccc(Cl)cc2)cc1 (stereo not drawn) [Example 307, 2-[1-(4-Chlorophenylsulfonyl)-3-(4-methylphenyl)propyl]-1,4-difluorobenzene] | 82 to 84 °C
COc1ccc(CCC(c2cc(F)ccc2F)S(=O)(=O)c2ccc(Cl)cc2)cc1 (stereo not drawn) [Example 308, 2-[1-(4-Chlorophenylsulfonyl)-3-(4-methoxyphenyl)propyl]-1,4-difluorobenzene] | 118 to 120 °C
O=S(=O)(c1ccc(Cl)cc1)C(CCc1ccc(F)cc1)c1cc(F)ccc1F (stereo not drawn) [Example 309, 2-[1-(4-Chlorophenylsulfonyl)-3-(4-fluorophenyl)propyl]-1,4-difluorobenzene] | 131 to 132 °C
O=S(=O)(c1ccc(Cl)cc1)C(CCc1ccc(Cl)cc1)c1cc(F)ccc1F (stereo not drawn) [Example 310, 2-[3-(4-Chlorophenyl)-1-(4-chlorophenylsulfonyl)propyl]-1,4-difluorobenzene] | 124 to 126 °C
O=S(=O)(c1ccc(Cl)cc1)C(CCc1ccc(Br)cc1)c1cc(F)ccc1F (stereo not drawn) [Example 311, 2-[3-(4-Bromophenyl)-1-(4-chlorophenylsulfonyl)propyl]-1,4-difluorobenzene] | 122 to 124 °C
O=S(=O)(c1ccc(Cl)cc1)C(CCCc1ccccc1)c1cc(F)ccc1F (stereo not drawn) [Example 312, 2-[1-(4-Chlorophenylsulfonyl)-4-phenylbutyl]-1,4-difluorobenzene] | 107 to 108 °C
O=S(=O)(c1ccc(Cl)cc1)C(CCCCc1ccccc1)c1cc(F)ccc1F (stereo not drawn) [Example 313, 2-[1-(4-Chlorophenylsulfonyl)-5-phenylpentyl]-1,4-difluorobenzene] | 88 to 90 °C
O=S(=O)(c1ccc(Cl)cc1)C(Cc1ccc(F)cc1)c1cc(F)ccc1F (stereo not drawn) [Example 314, 2-[1-(4-Chlorophenylsulfonyl)-2-(4-fluorophenyl)ethyl]-1,4-difluorobenzene] | 151 to 153 °C
O=S(=O)(Cc1ccc(C(c2cc(F)ccc2F)S(=O)(=O)c2ccc(Cl)cc2)nc1)c1ccc(Cl)cc1 (stereo not drawn) [Example 328, 2-[(4-Chlorophenylsulfonyl)-(2,5-difluorophenyl)methyl]-5-[(4-chlorophenylsulfonyl)methyl]pyridine] | 186 to 187 °C
Fc1ccc(F)c(C(Sc2ccc(Cl)cc2)c2ccc(C3OCCO3)cn2)c1 (stereo not drawn) [Example 329, 2-[(4-Chlorophenylthio)-(2,5-difluorophenyl)methyl]-5-(1,3-dioxolan-2-yl)pyridine] | 70 to 73 °C
COC(=O)/C=C/c1ccc(C(c2cc(F)ccc2F)S(=O)(=O)c2ccc(Cl)cc2)nc1 (stereo not drawn) [Example 332, Methyl 3-[6-[(4-chlorophenylsulfonyl)-(2,5-difluorophenyl)methyl]pyridin-3-yl]acrylate] | 145 to 146 °C
COC(=O)CCc1ccc(C(c2cc(F)ccc2F)S(=O)(=O)c2ccc(Cl)cc2)nc1 (stereo not drawn) [Example 333, Methyl 3-[6-[(4-chlorophenylsulfonyl)-(2,5-difluorophenyl)methyl]pyridin-3-yl]propionate] | 121 to 123 °C

Second part, the compound after the results:

melting point | SMILES
77 to 79 °C | O=S(=O)(c1ccc(Cl)cc1)C(CCCCCCO)c1cc(F)ccc1F (stereo not drawn) [Example 274, 7-[(4-Chlorophenyl)sulfonyl]-7-(2,5-difluorophenyl)-1-heptanol]
90 to 93 °C | O=S(=O)(c1ccc(Cl)cc1)C(Cc1ccco1)c1cc(F)ccc1F (stereo not drawn) [Example 296, 2-[2-[(4-Chlorophenyl)sulfonyl]-2-(2,5-difluorophenyl)ethyl]furan]
108 to 113 °C | O=S(=O)(c1ccc(Cl)cc1)C(CCn1cccc1)c1cc(F)ccc1F (stereo not drawn) [Example 297, 1-[3-[(4-Chlorophenyl)sulfonyl]-3-(2,5-difluorophenyl)propyl]-1H-pyrrole]
149 to 151 °C | O=S(=O)(c1ccc(Cl)cc1)C(CCN1CCOCC1)c1cc(F)ccc1F (stereo not drawn) [Example 298, 4-[3-[(4-Chlorophenyl)sulfonyl]-3-(2,5-difluorophenyl)propyl]morpholine]
111 to 113 °C | O=S(=O)(c1ccc(Cl)cc1)C(CCc1ccccc1)c1cc(F)ccc1F (stereo not drawn) [Example 304, 2-[1-(4-Chlorophenylsulfonyl)-3-phenylpropyl]-1,4-difluorobenzene]
93 to 94 °C | O=S(=O)(c1ccc(Cl)cc1)C(CCC1CCCC1)c1cc(F)ccc1F (stereo not drawn) [Example 315, 2-[1-(4-Chlorophenylsulfonyl)-3-cyclopentylpropyl]-1,4-difluorobenzene]
82 to 83 °C | O=S(=O)(c1ccc(Cl)cc1)C(CCC1CCCCC1)c1cc(F)ccc1F (stereo not drawn) [Example 316, 2-[1-(4-Chlorophenylsulfonyl)-3-cyclohexylpropyl]-1,4-difluorobenzene]
47 to 49 °C | O=S(=O)(c1ccc(Cl)cc1)C(CCCC1CCCCC1)c1cc(F)ccc1F (stereo not drawn) [Example 317, 2-[1-(4-Chlorophenylsulfonyl)-4-cyclohexylbutyl]-1,4-difluorobenzene]
129 to 131 °C | O=S(=O)(c1ccc(Cl)cc1)C(CCc1ccccn1)c1cc(F)ccc1F (stereo not drawn) [Example 318, 2-[3-(4-chlorophenylsulfonyl)-3-(2,5-difluorophenyl)propyl]pyridine]
183 to 184 °C | Cc1ncsc1CCC(c1cc(F)ccc1F)S(=O)(=O)c1ccc(Cl)cc1 (stereo not drawn) [Example 319, 5-[3-(4-Chlorophenylsulfonyl)-3-(2,5-difluorophenyl)propyl]-4-methyl-1,3-thiazole]
106 to 107 °C | O=S(=O)(c1ccc(Cl)cc1)C(CCN1CCCCC1)c1cc(F)ccc1F (stereo not drawn) [Example 320, 1-[3-(4-Chlorophenylsulfonyl)-3-(2,5-difluorophenyl)propyl]piperidine]
69 to 71 °C | CC1(C)COC(CCC(c2cc(F)ccc2F)S(=O)(=O)c2ccc(Cl)cc2)OC1 (stereo not drawn) [Example 321, 2-[3-(4-Chlorophenylsulfonyl)-3-(2,5-difluorophenyl)propyl]-5,5-dimethyl-1,3-dioxane]
68 to 69 °C | CCCCCC(c1cc(F)ccc1F)S(=O)(=O)c1ccc(Cl)cc1 (stereo not drawn) [Example 322, 2-[1-(4-Chlorophenylsulfonyl)hexyl]-1,4-difluorobenzene]
77 to 78 °C | CCCCCCC(c1cc(F)ccc1F)S(=O)(=O)c1ccc(Cl)cc1 (stereo not drawn) [Example 323, 2-[1-(4-Chlorophenylsulfonyl)heptyl]-1,4-difluorobenzene]
47 to 48 °C | CCCCCCCC(c1cc(F)ccc1F)S(=O)(=O)c1ccc(Cl)cc1 (stereo not drawn) [Example 324, 2-[1-(4-chlorophenylsulfonyl)octyl]-1,4-difluorobenzene]
79 to 80 °C | CC(C)CCCC(c1cc(F)ccc1F)S(=O)(=O)c1ccc(Cl)cc1 (stereo not drawn) [Example 325, 2-[1-(4-Chlorophenylsulfonyl)-5-methylhexyl]-1,4-difluorobenzene]
56 to 58 °C | CCC(C)CCC(c1cc(F)ccc1F)S(=O)(=O)c1ccc(Cl)cc1 (stereo not drawn) [Example 326, 2-[1-(4-Chlorophenylsulfonyl)-4-methylhexyl]-1,4-difluorobenzene]

Source: patent US7399775B2, “β-amyloid protein production/secretion inhibitor” (Daiichi Pharmaceutical Co., Ltd., priority 2001, dated 2008)
